In patent publication US20260373135A1, “Methods of Treatment with Tradipitant” (Vanda Pharmaceuticals Inc., priority 2022, published 2026):
Where two headings read alike, the source gives them in different places.

Key:
[1] = Four-period, two-way crossover open label single-dose food-effect pharmacokinetic study of tradipitant capsules in healthy participants (plasma tradipitant and metabolites M2, M3, M4, M8); assay type: in vivo, human; details: for AUC(0-t), Least Squares Geometric Mean Ratio (%), Estimate / AUC(inf), Least Squares Geometric Mean Ratio (%), Estimate / Cmax, Least Squares Geometric Mean Ratio (%), Estimate: fed/fasted; for Tmax / AUC(0-t) / AUC(0-inf) / Cmax: plasma; for Tmax: median; for AUC(inf) Ratio of geometric means (170 mg / 85 mg) / Cmax Ratio of geometric means (170 mg / 85 mg): 85 mg vs 170 mg tradipitant
Experimental: To evaluate the pharmacokinetics and effect of food on the bioavailability of single-dose capsules containing 170 mg tradipitant and 85 mg tradipitant, an open label, four-period, two-way crossover study is performed. The study comprises two cohorts, each of which conducts a screening phase and an evaluation phase. Cohort 1 only conducts Period 1 and Period 2 (FIG. 5), while Cohort 2 only conducts Period 3 and Period 4 (FIG. 6). It is possible for a participant in Cohort 1 to be a Participant in Cohort 2.
The screening phase (Day-21 to Day-2, FIGS. 5-6) consists of a screening visit wherein an informed consent is obtained from potential participants, and their eligibility is initially assessed based on vital signs, body measurements, physical examination, ECG, clinical laboratory tests, drug and alcohol screen, and medical history. Clinical laboratory testing includes a pharmacogenetics sample for whole genome sequencing. Participants may include men or women aged 18-55 years, inclusive at the time of screening; having a Body Mass Index (BMI) of ≥18.0 and ≤39.0 kg/m^2 (BMI=weight (kg)/[height (m)]^2); and female participants of childbearing potential must be non-pregnant and non-lactating. Participants must be in good health as determined by a medical and psychiatric history, physical examination, electrocardiogram, and serum chemistry and hematology; willing to comply with study procedures and restrictions; willing to provide a pharmacogenetic sample; and have negative test result for selected substances of abuse at screening. Individuals may be excluded from participating based on history (within the 12 months prior to screening) of psychiatric disorders; current clinically significant cardiovascular, respiratory, neurologic, hepatic, hematopoietic, renal, gastrointestinal, or metabolic dysfunction unless currently controlled and stable; history of intolerance and/or hypersensitivity to other NK-1 receptor antagonists; clinically significant deviation from normal in clinical laboratory results, vital signs measurements, or physical examination findings at screening as determined by the clinical investigator; major surgery, trauma (including broken pelvis/legs), illness (e.g. sepsis), or immobility for 3 or more days within the past month; active cancer or cancer treatment within the past 6 months prior to screening; central venous catheter in place or within the past month; impaired liver function indicated by AST, ALT, or bilirubin >2 times the upper limit of normal, unless there is an isolated bilirubin >2 times the upper limit of normal due to Gilbert's syndrome; pregnancy or recent pregnancy (within 6 weeks prior to screening) or women who are breastfeeding; history of drug or alcohol abuse as defined in DSM-V, Diagnostic Criteria for Drug and Alcohol Abuse, within the 12 months prior to screening and/or regular consumption of alcoholic drinks (>2 drinks/day or >14 drinks/week); randomization in a previous tradipitant trial; and participants at risk of suicide, in the opinion of the Investigator. […]

CYP3A4 = CYP3A4 (Homo sapiens, UniProt P08684); assay: Role of CYP3A4 genotype (CYP3A4*22) in metabolism/clearance of tradipitant, phase III study pharmacokinetics; assay type: in vivo
Sequence of CYP3A4 (P08684 whole entry): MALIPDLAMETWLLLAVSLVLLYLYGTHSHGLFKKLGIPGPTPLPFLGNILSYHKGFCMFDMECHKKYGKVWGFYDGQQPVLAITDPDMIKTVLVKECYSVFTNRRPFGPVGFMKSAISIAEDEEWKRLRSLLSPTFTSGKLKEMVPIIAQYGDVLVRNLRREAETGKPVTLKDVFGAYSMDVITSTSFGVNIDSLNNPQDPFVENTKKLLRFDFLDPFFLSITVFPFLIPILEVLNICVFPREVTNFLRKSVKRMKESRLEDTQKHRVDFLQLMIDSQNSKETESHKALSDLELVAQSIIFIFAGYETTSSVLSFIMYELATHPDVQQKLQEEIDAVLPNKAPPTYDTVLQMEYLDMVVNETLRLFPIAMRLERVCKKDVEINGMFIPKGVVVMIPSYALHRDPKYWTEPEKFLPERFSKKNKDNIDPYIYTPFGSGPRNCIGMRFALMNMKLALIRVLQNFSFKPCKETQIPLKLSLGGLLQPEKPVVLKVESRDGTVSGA
Experimental: To investigate the role of CYP3A4 genotypes in the metabolism of tradipitant, pharmacokinetics are analyzed in view of CYP3A4 genotype in a phase III study of humans dosed with tradipitant. In the investigation, all CYP3A4 alleles (as recognized by the Human Cytochrome P450 Allele Nomenclature Database) are reviewed. The analysis includes a linear model that is tested on various ratios of parent compound (tradipitant) or its metabolites, including: • Ratio A=Sum of (M2+M3+M4)/M8, and • Ratio B=(tradipitant)/(M3).
After correction for covariates, including principal components (PCs), age, sex, and body mass index (BMI), CYP3A4*22 is identified as a variant of interest, with a p-value of 1×10^−5. […] The effect of multiple alleles of interest is cumulative, as shown by the median ratios present in individuals having a CYP3A4 genotype of *22/*1, i.e. heterozygous for the *22 variant of interest (*22 het), compared with individuals having a CYP3A4 genotype of *22/*22+*3/*1 genotype, i.e., homozygous for the *22 variant of interest.
The graphs shown in FIGS. 2A-2H illustrate the plasma concentrations of tradipitant (FIG. 2A), metabolite M2 (FIG. 2B), metabolite M3 (FIG. 2C), metabolite M4 (FIG. 2D), metabolite M8 (FIG. 2E), ratio of tradipitant to M8 (FIG. 2F), ratio of all metabolites to M8 (i.e., (M2+M3+M4)/M8) (FIG. 2G), and ratio of tradipitant to M3 (FIG. 2H) in individuals in a study population. […] This reflects the reduced ability to clear tradipitant in individuals having a *22 allele.
The apparent clearance of tradipitant is plotted for individuals having a wild type (WT) genotype as compared to individuals having a heterozygous *22 (*22 het) genotype. The ratio of clearance (CL) in *22 het to WT is calculated as exp (median (HET)-median (WT)). Below these calculations, the P value is reported for a t test comparing the ETA values. […] Post hoc ETAs are the following: log (individual value for clearance/typical value for clearance), where “typical value” is essentially the median value. […]

[2] = fasted conditions, 85 mg vs 170 mg

O=C(c1ccccc1Cl)c1cccnc1-c1nnn(Cc2cc(C(F)(F)F)cc(C(F)(F)F)c2)c1-c1ccncc1 [tradipitant, {2-[1-(3,5-Bistrifluoromethylbenzyl)-5-pyridin-4-yl-1H-[1,2,3]triazol-4-yl]-pyridin-3-yl}-(2-chlorophenyl)-methanone]
increase in Tmax in the fed state ([1]; 85 mg tradipitant oral, fed vs fasted): 2 fold | AUC(0-t), Least Squares Geometric Mean Ratio (%), Estimate ([1]; 85 mg tradipitant oral): 234.21% | AUC(inf), Least Squares Geometric Mean Ratio (%), Estimate ([1]; 85 mg tradipitant oral): 263.08% | Cmax, Least Squares Geometric Mean Ratio (%), Estimate ([1]; 85 mg tradipitant oral): 437.59% | Cmax, Least Squares Geometric Mean Ratio (%), Estimate ([1]; 85 mg tradipitant oral, listed as Tradipitant): 473.59% | Tmax ([1]; 170 mg tradipitant oral, fasted): 1.50 (15) hr | AUC(0-t), Least Squares Geometric Mean Ratio (%), Estimate ([1]; 170 mg tradipitant oral): 328.21% | AUC(inf), Least Squares Geometric Mean Ratio (%), Estimate ([1]; 170 mg tradipitant oral): 381.70% | Cmax, Least Squares Geometric Mean Ratio (%), Estimate ([1]; 170 mg tradipitant oral): 703.87% | Tmax ([1]; 170 mg tradipitant oral, fed): 4.00 (15) hr | dose proportionality of AUC(inf) [1, 2]: close to dose proportional | dose proportionality of Cmax [1, 2]: less than dose proportionality | AUC(inf) Ratio of geometric means (170 mg / 85 mg) ([1]; fasted conditions): 1.92 | Cmax Ratio of geometric means (170 mg / 85 mg) ([1]; fasted conditions): 1.32 | AUC(inf) Ratio of geometric means (170 mg / 85 mg) ([1]; fed conditions): 2.30 | Cmax Ratio of geometric means (170 mg / 85 mg) ([1]; fed conditions): 1.93 | effect of fed state on absorption (extent/rate, Tmax) ([1]; fed vs fasted, both 170 mg and 85 mg doses): an increase in the extent and a decrease in the rate of absorption | AUC(0-t) ([1]; human, po, 85 mg, 85 mg tradipitant oral, fasted, ln-transformed, read-out: AUC(0-t), Least Squares Geometric Mean, Fasted): 1650 ng·h/mL | AUC(0-inf) ([1]; human, po, 85 mg, 85 mg tradipitant oral, fasted, ln-transformed, read-out: AUC(inf), Least Squares Geometric Mean, Fasted): 1790 ng·h/mL | Cmax ([1]; human, po, 85 mg, 85 mg tradipitant oral, fasted, ln-transformed, read-out: Cmax, Least Squares Geometric Mean, Fasted): 84.7 ng/mL | AUC(0-inf) ([1]; human, po, 85 mg, 85 mg tradipitant oral, fasted, geometric mean [geometric % CV], read-out: AUC(inf)): 1840 ng·h/mL | Cmax ([1]; human, po, 85 mg, 85 mg tradipitant oral, fasted, geometric mean [geometric % CV], read-out: Cmax): 84.7 ng/mL | Tmax ([1]; human, po, 85 mg, 85 mg tradipitant oral, fasted, read-out: Tmax): 2 h | AUC(0-t) ([1]; human, po, 85 mg, 85 mg tradipitant oral, fed, ln-transformed, read-out: AUC(0-t), Least Squares Geometric Mean, Fed): 3860 ng·h/mL | AUC(0-inf) ([1]; human, po, 85 mg, 85 mg tradipitant oral, fed, ln-transformed, read-out: AUC(inf), Least Squares Geometric Mean, Fed): 4700 ng·h/mL | Cmax ([1]; human, po, 85 mg, 85 mg tradipitant oral, fed, ln-transformed, read-out: Cmax, Least Squares Geometric Mean, Fed): 401 ng/mL | AUC(0-inf) ([1]; human, po, 85 mg, 85 mg tradipitant oral, fed, geometric mean [geometric % CV], read-out: AUC(inf)): 4520 ng·h/mL | Cmax ([1]; human, po, 85 mg, 85 mg tradipitant oral, fed, geometric mean [geometric % CV], read-out: Cmax): 401 ng/mL | Tmax ([1]; human, po, 85 mg, 85 mg tradipitant oral, fed, read-out: Tmax): 4 h | AUC(0-t) ([1]; human, po, 170 mg, 170 mg tradipitant oral, fasted, ln-transformed, read-out: AUC(0-t), Least Squares Geometric Mean, Fasted): 2800 ng·h/mL | AUC(0-inf) ([1]; human, po, 170 mg, 170 mg tradipitant oral, fasted, ln-transformed, read-out: AUC(inf), Least Squares Geometric Mean, Fasted): 2730 ng·h/mL | Cmax ([1]; human, po, 170 mg, 170 mg tradipitant oral, fasted, ln-transformed, read-out: Cmax, Least Squares Geometric Mean, Fasted): 111 ng/mL | AUC(0-inf) ([1]; human, po, 170 mg, 170 mg tradipitant oral, fasted, geometric mean [geometric % CV], read-out: AUC(inf)): 3530 ng·h/mL | Cmax ([1]; human, po, 170 mg, 170 mg tradipitant oral, fasted, geometric mean [geometric % CV], read-out: Cmax): 112 ng/mL | Tmax ([1]; human, po, 170 mg, 170 mg tradipitant oral, fasted, read-out: Tmax): 1.5 h | AUC(0-t) ([1]; human, po, 170 mg, 170 mg tradipitant oral, fed, ln-transformed, read-out: AUC(0-t), Least Squares Geometric Mean, Fed): 9180 ng·h/mL | AUC(0-inf) ([1]; human, po, 170 mg, 170 mg tradipitant oral, fed, ln-transformed, read-out: AUC(inf), Least Squares Geometric Mean, Fed): 10400 ng·h/mL | Cmax ([1]; human, po, 170 mg, 170 mg tradipitant oral, fed, ln-transformed, read-out: Cmax, Least Squares Geometric Mean, Fed): 778 ng/mL | AUC(0-inf) ([1]; human, po, 170 mg, 170 mg tradipitant oral, fed, geometric mean [geometric % CV], read-out: AUC(inf)): 10400 ng·h/mL | Cmax ([1]; human, po, 170 mg, 170 mg tradipitant oral, fed, geometric mean [geometric % CV], read-out: Cmax): 774 ng/mL | Tmax ([1]; human, po, 170 mg, 170 mg tradipitant oral, fed, read-out: Tmax): 4 h | reduction of tradipitant clearance in *22 heterozygotes (CYP3A4; CYP3A4*22 heterozygotes vs wild type): 34% | median plasma concentration in *22 het vs wild type (CYP3A4; CYP3A4*22 heterozygous vs wild type (*1/*1), plasma, FIGS. 2A-2D): clearly greater median concentrations | median ratio of tradipitant to M8 in *22 het vs wild type (CYP3A4; CYP3A4*22 heterozygous vs wild type, plasma, FIG. 2F): clearly greater median ratio of tradipitant to M8
